Assay results reported in ChEMBL document CHEMBL5052841, “Usp19 inhibitors for use in therapy” (2020).
Active and inactive are the calls of the source. The rule behind the calls is not given here.

Assays:
Mus musculus [1] = experiment: Protection against sciatic nerve denervation-induced muscular atrophy in male C57BL/6 mouse assessed as lower loss of tibialis anterior muscle at 75 mg/kg, ip administered twice daily; format: functional, organism-based
Mus musculus [2] = experiment: Anti-diabetic activity in high-fat diet-induced obesity model of male C57BL/6J mouse assessed as decrease in plasma glucose at 25 mg/kg, ip administered twice daily; format: functional, organism-based
Mus musculus [3] = experiment: Antiobesity activity in high-fat diet-induced obesity model of male C57BL/6J mouse assessed as increase in liver mass at 5 to 25 mg/kg, ip administered twice daily; format: functional, organism-based; details: dose 5-25 mg/kg
[4] = Toxicity in high-fat diet-induced obesity model of male C57BL/6J mouse assessed as reduction in body fat at 25 mg/kg, ip administered twice daily; format: organism-based; set-up: scale not given: the % may be the effect or the level left; details: in vivo
Mus musculus [5] = experiment: Antiobesity activity in high-fat diet-induced obesity model of male C57BL/6J mouse assessed as reduction in lean mass at 5 to 25 mg/kg, ip administered twice daily; format: functional; set-up: scale not given: the % may be the effect or the level left; details: dose 5-25 mg/kg
[6] = molecular target: T1, Ubiquitin carboxyl-terminal hydrolase 19 (Homo sapiens, UniProt O94966); experiment: Inhibition of USP19 (unknown origin) in neuroblastoma cell measured by cell target engagement assay; format: cell-based
T1 sequence (O94966 whole entry): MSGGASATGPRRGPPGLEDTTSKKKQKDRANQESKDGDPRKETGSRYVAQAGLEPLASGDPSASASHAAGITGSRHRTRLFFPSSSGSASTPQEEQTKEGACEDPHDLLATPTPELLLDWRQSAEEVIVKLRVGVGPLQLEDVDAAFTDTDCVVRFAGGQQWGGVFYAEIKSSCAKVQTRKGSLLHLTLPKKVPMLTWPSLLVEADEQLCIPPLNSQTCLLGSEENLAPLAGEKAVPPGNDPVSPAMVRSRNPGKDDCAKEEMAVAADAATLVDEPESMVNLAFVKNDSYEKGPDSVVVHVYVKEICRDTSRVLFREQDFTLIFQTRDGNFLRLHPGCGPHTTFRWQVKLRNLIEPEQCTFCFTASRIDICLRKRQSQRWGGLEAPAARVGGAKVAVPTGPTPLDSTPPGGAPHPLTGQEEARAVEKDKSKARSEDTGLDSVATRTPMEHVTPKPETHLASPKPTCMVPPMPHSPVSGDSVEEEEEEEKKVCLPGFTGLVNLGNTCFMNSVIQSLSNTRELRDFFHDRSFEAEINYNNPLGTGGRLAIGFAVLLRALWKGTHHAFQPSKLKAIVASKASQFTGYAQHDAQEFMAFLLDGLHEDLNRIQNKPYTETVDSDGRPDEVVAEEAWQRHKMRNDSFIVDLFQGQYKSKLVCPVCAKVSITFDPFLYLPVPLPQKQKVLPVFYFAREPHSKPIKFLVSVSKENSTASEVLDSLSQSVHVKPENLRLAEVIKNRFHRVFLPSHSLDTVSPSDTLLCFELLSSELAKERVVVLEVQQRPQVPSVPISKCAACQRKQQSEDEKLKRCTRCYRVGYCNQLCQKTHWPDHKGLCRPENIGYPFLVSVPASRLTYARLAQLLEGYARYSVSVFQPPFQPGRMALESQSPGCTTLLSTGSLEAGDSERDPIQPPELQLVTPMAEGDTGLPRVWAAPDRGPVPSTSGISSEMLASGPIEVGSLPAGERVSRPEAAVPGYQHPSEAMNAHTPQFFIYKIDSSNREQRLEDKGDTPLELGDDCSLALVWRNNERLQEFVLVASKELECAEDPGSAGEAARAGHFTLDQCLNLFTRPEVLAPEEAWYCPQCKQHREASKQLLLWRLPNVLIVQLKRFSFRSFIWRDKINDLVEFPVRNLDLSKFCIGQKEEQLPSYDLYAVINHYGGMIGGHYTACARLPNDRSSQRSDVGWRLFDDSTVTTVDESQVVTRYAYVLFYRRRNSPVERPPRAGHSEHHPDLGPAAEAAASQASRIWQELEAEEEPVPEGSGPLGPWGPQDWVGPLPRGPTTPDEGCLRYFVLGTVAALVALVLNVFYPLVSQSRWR

[7] = Toxicity in high-fat diet-induced obesity model of male C57BL/6J mouse assessed as effect on total protein content at 5 mg/kg, ip administered twice daily; format: organism-based; details: in vivo
[8] = Toxicity in high-fat diet-induced obesity model of male C57BL/6J mouse assessed as increase in body water content at 25 mg/kg, ip administered twice daily; format: organism-based; details: in vivo
Mus musculus [9] = experiment: Protection against sciatic nerve denervation-induced muscular atrophy in male C57BL/6 mouse assessed as decrease in muscle wasting in gastrocnemius muscle at 75 mg/kg, ip administered twice daily; format: functional, organism-based
[10] = Toxicity in high-fat diet-induced obesity model of male C57BL/6J mouse assessed as decrease in total body weight at 25 mg/kg, ip administered twice daily; format: organism-based; set-up: scale not given: the % may be the effect or the level left; details: in vivo
[11] = Toxicity in high-fat diet-induced obesity model of male C57BL/6J mouse assessed as decrease in total ash content at 25 mg/kg, ip administered twice daily; format: organism-based; set-up: scale not given: the % may be the effect or the level left; details: in vivo
Mus musculus [12] = experiment: Anti-diabetic activity in high-fat diet-induced obesity model of male C57BL/6J mouse assessed as decrease in plasma insulin at 25 mg/kg, ip administered twice daily; format: functional, organism-based
Mus musculus [13] = experiment: Antiobesity activity in high-fat diet-induced obesity model of male C57BL/6J mouse assessed as reduction in fat mass at 5 to 25 mg/kg, ip administered twice daily; format: functional; set-up: scale not given: the % may be the effect or the level left; details: dose 5-25 mg/kg
[14] = Toxicity in high-fat diet-induced obesity model of male C57BL/6J mouse assessed as effect on body water content at 5 mg/kg, ip administered twice daily; format: organism-based; details: in vivo
[15] = molecular target: T1, Ubiquitin carboxyl-terminal hydrolase 19; experiment: Inhibition of USP19 (unknown origin) in breast cancer cell measured by cell target engagement assay; set-up: species or system Breast cancer cell line
[16] = molecular target: T1, Ubiquitin carboxyl-terminal hydrolase 19; experiment: Inhibition of C-terminal His6-tagged recombinant human USP19 using iso-peptide ubiquitin-Lys-TAMRA as substrate incubated for 30 mins and measured after 90 mins by fluorescent polarization assay
[17] = Toxicity in high-fat diet-induced obesity model of male C57BL/6J mouse assessed as decrease in total protein content at 25 mg/kg, ip administered twice daily; format: organism-based; set-up: scale not given: the % may be the effect or the level left; details: in vivo
Mus musculus [18] = experiment: Antiobesity activity in high-fat diet-induced obesity model of male C57BL/6J mouse assessed as reduction in epididymal fat mass at 5 to 25 mg/kg, ip administered twice daily; format: functional, organism-based; details: dose 5-25 mg/kg
Mus musculus [19] = experiment: Antiobesity activity in high-fat diet-induced obesity model of male C57BL/6J mouse assessed as decrease in body weight gain at 5 to 25 mg/kg, ip administered twice daily; format: functional, organism-based; details: dose 5-25 mg/kg
[20] = Inhibition of USP19 in mouse skeletal muscle cell measured by cell target engagement assay; format: cell-based
[21] = Toxicity in high-fat diet-induced obesity model of male C57BL/6J mouse assessed as decrease in total body weight at 0.1 mg/kg, sc administered twice daily; format: organism-based; set-up: scale not given: the % may be the effect or the level left; details: in vivo
[22] = Toxicity in high-fat diet-induced obesity model of male C57BL/6J mouse assessed as decrease in total protein content at 0.1 mg/kg, sc administered twice daily; format: organism-based; set-up: scale not given: the % may be the effect or the level left; details: in vivo
[23] = Toxicity in high-fat diet-induced obesity model of male C57BL/6J mouse assessed as decrease in body water content at 0.1 mg/kg, sc administered twice daily; format: organism-based; set-up: scale not given: the % may be the effect or the level left; details: in vivo
[24] = Toxicity in high-fat diet-induced obesity model of male C57BL/6J mouse assessed as decrease in total ash content at 0.1 mg/kg, sc administered twice daily; format: organism-based; set-up: scale not given: the % may be the effect or the level left; details: in vivo
[25] = Toxicity in high-fat diet-induced obesity model of male C57BL/6J mouse assessed as reduction in body fat at 0.1 mg/kg, sc administered twice daily; format: organism-based; set-up: scale not given: the % may be the effect or the level left; details: in vivo

C[C@H](CC1CCCCC1)C(=O)N1CC[C@@](O)(Cn2cc(C(=O)N3CCNCC3)c(-c3ccccc3)cc2=O)C2(CCCC2)C1
Activity (Mus musculus [1]): Active
Activity (Mus musculus [2]): Active
Activity (Mus musculus [3]): Active
Activity [4]: 24.9%
Activity (Mus musculus [5]): -3%
EC50 [6]: 32.8 nM
Activity [7]: Non-Toxic
Activity [8]: 11.4%
Activity (Mus musculus [9]): Active
Activity [10]: 13%
Activity [11]: -9.6%
Activity (Mus musculus [12]): Active
Activity (Mus musculus [13]): 24%
Activity [14]: Non-Toxic
EC50 [15]: 9.9 nM
IC50 [16]: < 500 nM
Activity [17]: -7.2%
Activity (Mus musculus [18]): Active
Activity (Mus musculus [19]): Active
EC50 [20]: 13.5 nM

CCCCCCCCCCCCCCCC(=O)N[C@@H](CCC(=O)NCCCC[C@H](NC(=O)[C@H](C)NC(=O)[C@H](C)NC(=O)[C@H](CCC(N)=O)NC(=O)CNC(=O)[C@H](CCC(=O)O)NC(=O)[C@H](CC(C)C)NC(=O)[C@H](Cc1ccc(O)cc1)NC(=O)[C@H](CO)NC(=O)[C@H](CO)NC(=O)[C@@H](NC(=O)[C@H](CC(=O)O)NC(=O)[C@H](CO)NC(=O)[C@@H](NC(=O)[C@H](Cc1ccccc1)NC(=O)[C@@H](NC(=O)CNC(=O)[C@H](CCC(=O)O)NC(=O)[C@H](C)NC(=O)[C@@H](N)Cc1cnc[nH]1)[C@@H](C)O)[C@@H](C)O)C(C)C)C(=O)N[C@@H](CCC(=O)O)C(=O)N[C@@H](Cc1ccccc1)C(=O)N[C@H](C(=O)N[C@@H](C)C(=O)N[C@@H](Cc1c[nH]c2ccccc12)C(=O)N[C@@H](CC(C)C)C(=O)N[C@H](C(=O)N[C@@H](CCCNC(=N)N)C(=O)NCC(=O)N[C@@H](CCCNC(=N)N)C(=O)NCC(=O)O)C(C)C)[C@@H](C)CC)C(=O)O [LIRAGLUTIDE]
Activity [21]: 13%
Activity [22]: -7.9%
Activity [23]: -8.6%
Activity [24]: -11.6%
Activity [25]: 17.4%
